Assay results published in ChEMBL document CHEMBL6121031, “Optimizing Linezolid: Transforming It into a Selective MAO-B Inhibitor via a Toxicity-to-Activity Optimization Approach” (ACS Med Chem Lett, 2025).

What was measured:
[1] = target: T1, Amine oxidase [flavin-containing] A (Homo sapiens, UniProt P21397); assay: Inhibition of recombinant human MAO-A using kynuramine as substrate incubated for 15 mins by absorbance based assay
T1 sequence (P21397 whole entry): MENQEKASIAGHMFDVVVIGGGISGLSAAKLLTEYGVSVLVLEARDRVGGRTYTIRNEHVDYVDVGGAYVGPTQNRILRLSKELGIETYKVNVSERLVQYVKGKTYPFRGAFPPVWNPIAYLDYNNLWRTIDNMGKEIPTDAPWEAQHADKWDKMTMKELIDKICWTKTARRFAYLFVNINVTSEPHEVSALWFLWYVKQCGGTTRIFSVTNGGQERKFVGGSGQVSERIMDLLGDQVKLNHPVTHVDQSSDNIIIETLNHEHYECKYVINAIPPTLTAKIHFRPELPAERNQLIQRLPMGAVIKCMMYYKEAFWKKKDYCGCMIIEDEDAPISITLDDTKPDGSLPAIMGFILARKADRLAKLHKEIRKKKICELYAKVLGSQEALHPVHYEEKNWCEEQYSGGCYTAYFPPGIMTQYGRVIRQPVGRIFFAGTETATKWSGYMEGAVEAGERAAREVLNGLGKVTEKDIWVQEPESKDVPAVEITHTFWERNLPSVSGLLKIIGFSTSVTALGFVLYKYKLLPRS

[2] = target: T2, Amine oxidase [flavin-containing] B (Homo sapiens, UniProt P27338)
T2 sequence (P27338 whole entry): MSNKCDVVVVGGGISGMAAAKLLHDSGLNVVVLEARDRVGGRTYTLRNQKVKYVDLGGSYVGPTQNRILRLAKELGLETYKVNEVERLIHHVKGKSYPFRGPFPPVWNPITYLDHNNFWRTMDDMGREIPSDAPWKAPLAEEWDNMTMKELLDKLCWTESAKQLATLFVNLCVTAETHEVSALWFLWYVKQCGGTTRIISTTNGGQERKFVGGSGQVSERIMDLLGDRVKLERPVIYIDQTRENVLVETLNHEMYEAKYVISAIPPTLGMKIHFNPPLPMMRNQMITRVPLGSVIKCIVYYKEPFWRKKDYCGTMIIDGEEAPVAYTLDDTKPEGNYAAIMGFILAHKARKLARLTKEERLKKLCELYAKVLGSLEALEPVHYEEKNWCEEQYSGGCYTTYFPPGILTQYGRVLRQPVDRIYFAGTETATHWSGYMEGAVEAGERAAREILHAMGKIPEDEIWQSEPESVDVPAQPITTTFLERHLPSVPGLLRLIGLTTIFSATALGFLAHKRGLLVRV

[3] = tested on: Mycobacterium tuberculosis; assay: Antimycobacterial activity against Mycobacterium tuberculosis H37Rv measured after 7 days by MABA assay; type: functional; details: 168 h, time 7 day
[4] = target: T2, Amine oxidase [flavin-containing] B; details: 0.5 h
[5] = target: T2, Amine oxidase [flavin-containing] B; assay: Reversible competitive inhibition of human MAO-B assessed as residual activity before dialysis at 0.068 uM incubated for 30 mins relative to control; details: 0.5 h, read-out: Activity
[6] = target: T2, Amine oxidase [flavin-containing] B; assay: Reversible competitive inhibition of human MAO-B assessed as residual activity after dialysis at 0.068 uM incubated for 30 mins relative to control; details: 0.5 h, read-out: Activity
[7] = target: T2, Amine oxidase [flavin-containing] B; assay: Potency index, ratio of Pargyline IC50 to test compound IC50 for inhibition of recombinant human MAO-B using benzylamine as substrate incubated for 15 mins by absorbance based assay; details: 0.25 h
[8] = target: T2, Amine oxidase [flavin-containing] B; assay: Potency index, ratio of Clorgyline IC50 to test compound IC50 for inhibition of recombinant human MAO-B using benzylamine as substrate incubated for 15 mins by absorbance based assay; details: 0.25 h
[9] = Cytotoxicity against human THP-1 cells incubated for 3 days by Cell Titer-Glo Luminescent Cell Viability Assay; type: toxicity, cell-based

CC(=O)Nc1nnc(-c2ccc(N3CCOCC3)c(F)c2)s1 gave an IC50 [1] greater than 40 µM, an IC50 [2] of 1.02 µM and an MIC [3] greater than 25 µg/mL.

CC(=O)Nc1nnc(-c2ccc(N3CCCC3)c(F)c2)s1 gave an IC50 [1] of 13.2 µM, an IC50 [2] of 0.17 µM and an MIC [3] greater than 25 µg/mL.

With O=C(Nc1nnc(-c2ccc(N3CCSCC3)c(F)c2)s1)C1CC1 the IC50 [1] was greater than 40 µM, the IC50 [2] was 0.1 µM and the MIC [3] was greater than 25 µg/mL.

With O=S(=O)(Nc1nnc(-c2ccc(N3CCSCC3)c(F)c2)s1)C1CC1 the IC50 [1] was 26 µM, the IC50 [2] was 0.05 µM and the MIC [3] was greater than 25 µg/mL.

Compound C#CCN(C)Cc1ccccc1 [PARGYLINE] has an activity at 0.028 µM [4] of 34%.

In the case of CS(=O)(=O)Nc1nnc(-c2ccc(N3CCSCC3)c(F)c2)s1, the IC50 [1] is reported as 18.4 µM, the IC50 [2] is reported as 0.04 µM and the MIC [3] is reported as greater than 25 µg/mL.

Compound CCS(=O)(=O)Nc1nnc(-c2ccc(N3CCSCC3)c(F)c2)s1 has an IC50 [1] of 15.8 µM, an IC50 [2] of 0.03 µM and an activity at 0.068 µM [5] of 35%. For the same compound, the activity at 0.068 µM [6] was 73.5%, the “Ratio IC50” value [7] was 4 and the “Ratio IC50” value [8] was 54. It also gave an MIC [3] greater than 25 µg/mL and an IC50 at 3 days [9] greater than 300 µg/mL.

For CCCCS(=O)(=O)Nc1nnc(-c2ccc(N3CCSCC3)c(F)c2)s1, the IC50 [1] was 21.5 µM, the IC50 [2] was 0.05 µM and the MIC [3] was greater than 25 µg/mL.

CC(=O)Nc1nnc(-c2ccc(N3CCSCC3)c(F)c2)s1 showed an IC50 [1] of 8.96 µM, an IC50 [2] of 0.07 µM and an MIC [3] greater than 25 µg/mL. The IC50 at 3 days [9] was greater than 300 µg/mL.
